What was measured:
MT4 cells = assay: Tissue culture cytotoxicity measurement in MT4 cells; assay type: cell-based
Text: Fig 1 ALLINI structures and STP0404 activities. […] Pyridine-based KF116, D. Pyrrolopyridine-based STP0404. The conserved chemical moiety containing tert-butoxy and carboxylic acid groups are marked by “]”.

[1] = Safety pharmacology: effects on the cardiovascular system in dogs; assay type: in vivo; conditions: oral 30, 60 and 90 mg/kg
Description: Effects on the Respiratory System in Rats (Study no. YL18404). Four groups of eight male rats were given a single oral administration of STP0404 at doses of 100, 300 and 600 mg/kg. STP0404 was administered as a suspension in 0.5% MC in a volume of 10 mL/kg. […] Measurements were conducted at pre-dosing and 0.5, 1, 3, 6 12 and 24 hrs post-dosing, and respiratory rate, tidal volume and minute volume were investigated (INA Research, Japan). Effects on the Central Nervous System in Rats (Study no. YL18405). Four groups of six male rats were given a single oral administration of STP0404 at doses of 0 (vehicle), 100, 300 and 600 mg/kg. The test article was administered as a suspension in 0.5% MC in a volume of 10 mL/kg. […] Blinded observations were conducted pre-dosing and 0.5, 1, 3, 6, 12 and 24 hrs post-dosing on rats body temperature, pupil size, landing foot-splay and grip strength in functional observational battery. Effects on the Cardiovascular System in Dogs (Study no. YL18406). STP0404 at dose levels of 30, 60 and 90 mg/kg were administered orally (by capsules) to four male Beagle dogs in a design with 7-day intervals between doses. Heart rate, blood pressure (systolic, diastolic and mean) and electrocardiographic (ECG) parameters (PR, QT and QTc intervals and QRS duration) were evaluated at pre-dosing and 0.5, 1, 2, 4, 8 and 24 hrs post-dosing. […]

Question: For `Cc1nc2c(c(C)c(C)n2Cc2cnn(C)c2)c(-c2ccc(Cl)cc2)c1[C@H](OC(C)(C)C)C(=O)O` [STP0404], which TC50 (MT4 cells) is on record?
Answer: > 10,000 nM

Question: What about the “safety pharmacology concerns, cardiovascular system” value [1] of the same molecule?
Answer: did not induce any safety pharmacology concerns
